Assays:
erythropoietin (EPO) [1] = experiment: Phase 1b study: pharmacodynamics, Baseline-unadjusted serum EPO concentration; assay type: in vivo, human
Experimental: PK and EPO Sample. For each vadadustat treatment group, blood samples for vadadustat PK (and its metabolites) and EPO were collected at the following time points: Day 1: predose, and at 1, 2, 3, 4, 5, 8, and 11 hours post dose; Day 2: 24 hours (−2 hours) post Day 1 dose; Day 6: blood sample for EPO analysis only was collected predose on Day 6; Day 8: predose, and at 1, 2, 3, 4, 5, 8, 11 hours post dose, Day 10 or EOT: predose. For the ESA treatment group, blood samples for analysis of EPO were collected at the following time points: Day 1: predose, and at 0.25, 1, 2, 3, 4, 5, 8, and 11 hours post dose; Day 2: 24 hours (−2 hours) post Day 1 dose.
PD Sampling. For all vadadustat and ESA treatment groups, in addition to EPO, blood samples for Hb, reticulocytes and iron indices for PD analyses were collected on Day 1, Day 6 and Day 10. Hepcidin were collected predose on Day 1, Day 6, and Day 10 for PD analysis.
Secondary Endpoints. For each treatment group, PD parameters included, but were not limited to, as deemed appropriate: hepcidin, erythropoietin (EPO), iron indices (iron, ferritin, total iron-binding capacity [TIBC], TSAT), Hb, and reticulocytes.
The summary of serum concentration of Baseline-unadjusted EPO by time for the vadadustat treatment groups in the PK population are presented in FIGS. 1a-11b and FIGS. 12a-12b. The summary of PD parameters for Baseline-unadjusted serum EPO concentration for vadadustat treatment groups by dosing days for the PK population are summarized in Table 2.

erythropoietin (EPO) [2] = experiment: Phase 2 study, Main Study: pharmacodynamics, Baseline-Unadjusted serum EPO concentration; assay type: in vivo, human
Experimental: PK/PD Endpoints. An exposure-response analysis of vadadustat and PD measures were conducted as deemed appropriate. The PK parameters included (but were not limited to) the following: area under concentration-time curve from dosing to last measurable concentration (AUClast), area under concentration-time curve from dosing to infinity (AUCinf), Cmax, apparent total body clearance (CL/F), apparent volume of distribution (Vd/F), and terminal half-life (t1/2). The PD parameters included (but were not limited to) the following: EPO, reticulocytes, iron, ferritin, TIBC, and hepcidin.
PK population: included all randomized subjects who received study drug (vadadustat or epoetin alfa) and had enough drug concentrations to estimate AUC and Cmax. Analysis of this population was based on the dose amount taken at the date of PK sampling for the vadadustat group.
PD parameters for serum EPO concentration are presented by epoetin alfa stratification for vadadustat treatment groups in Table 7, Table 8a and Table 8b (baseline-unadjusted) and Table 9, Table 10a and Table 10b (baseline-adjusted).

[3] = low epoetin alfa stratum, Week 1 and Week 1+1 day

`O=C(O)CNC(=O)c1ncc(-c2cccc(Cl)c2)cc1O` [vadadustat, {[5-(3-chlorophenyl)-3-hydroxypyridine-2-carbonyl]amino}acetic acid] was tested, and the EPO response (erythropoietin (EPO) [1]; 600, 750, 900 mg QD, Day 1 and Day 8) was “variable EPO response”, the “EPO after administration versus dose” value (erythropoietin (EPO) [1]; Day 8) was “dose-dependent increase of EPO” and the “EPO concentration versus dose” value (erythropoietin (EPO) [2]; high epoetin alfa stratum) was “No particular trend”. For the same molecule, the “EPO Cmax versus dose” value (erythropoietin (EPO) [2]; high epoetin alfa stratum, Week 1) was “dose dependent”, the “EPO Cmax and AUC versus comparator” value (erythropoietin (EPO) [2]; [3]) was “lower compared to the epoetin alfa treatment group” and the “EPO Cmax and AUC versus dose” value (erythropoietin (EPO) [2]; [3]) was “dose proportional”. For the same molecule, the “EPO concentration versus dose” value (erythropoietin (EPO) [2]; low epoetin alfa stratum, Week 1 and Week 1+1 day (300, 450 mg), Week 11 (150 to 600 mg)) was “Dose dependent increases in EPO concentrations”.
